Patent US12029797B2, “Fatty acid derivative labeled with positron-emitting radionuclide” (ASTELLAS PHARMA INC., priority 2018, dated 2024)
Entries after “also recorded” stand apart in the source; their conditions may differ.

Experiments:
Assay type in all cases: in vivo
[1] = system: normal cynomolgus monkeys; assay: PET test using normal cynomolgus monkey (SUV in heart muscle and bone ROI); settings: for SUV (Bone): bone ROI (near the spine), n.d. = target organ cannot be confirmed in the image, ROI cannot be set; for accumulation to the heart muscle compared to [^18F]FTO / non-specific accumulation to the bone compared to [^18F]FTO: cynomolgus monkey PET, result in words; for SUV (Heart muscle): heart muscle ROI, about 300 MBq lower extremity vein, male cynomolgus monkey
From the text: Solutions containing each compound prepared in Example 1 (7-[^18F]FTO), Example 2 (6-[^18F]FTO), Reference Example 4 ([^18F]FTO), Reference Example 5 (15-[^18F]FTO), and Reference Example 6 (17-[^18F]FTO) were used to perform a heart contrast PET test using normal cynomolgus monkeys.
For performing non-invasive PET imaging, in a state in which a male cynomolgus monkey was anesthetized with inhalation anesthetic isoflurane, the monkey was held at a supine body position on a PET camera SHR17000 (manufactured by Hamamatsu Photonics K.K.), the solution containing each compound (about 300 MBq) was administered from the lower extremity vein, and continuous imaging was performed for 180 minutes or 240 minutes after the administration. The PET images were reconstructed by dynamic row-action maximum likelihood algorithm (DRAMA) and average images are obtained every 20 minutes. Then, the region of interest (ROI) was set in the heart muscle region or bone (near the spine), and the accumulation (standardized uptake value (SUV)) of each compound was calculated as {radioactivity count in the ROI (MBq/cc)/[dose (MBq)/body weight (g)]}.
The SUV values quantified by setting the ROI for the heart muscle and the bone of each compound are shown in Tables 6 and 7 as SUV (heart muscle) and SUV (bone). […] A case where the target organ cannot be confirmed in the image and the ROI cannot be set is denoted as n.d, and a case where measurement is not performed is denoted as n.t. In addition, MIP (Maximum Intensity Projection) PET images 60 minutes and 240 minutes after the administration of the compounds of Reference Example 4 ([^18F]FTO) and Example 1 (7-[^18F]FTO) are shown in FIG. 1.

DBA2 mouse = assay: PET test using normal mouse; radioactivity of isolated heart and femur by gamma counter; settings: for SUV Femur: isolated femur; for SUV Femur / SUV Heart: 120 minutes after administration, about 10 MBq tail vein, male DBA2 mouse, gamma counter, average ± standard error of 5 cases; for SUV Heart: isolated heart
Method: A whole body contrast PET test was performed using the solution containing the compound of Example 1 (7-[^18F]FTO) or Reference Example 4 ([^18F]FTO) using a DBA2 mouse.
For performing non-invasive PET imaging, in a state in which a male DBA2 mouse was anesthetized with the inhalation anesthetic isoflurane, the mouse was held in a supine body position on a PET camera Inveon (manufactured by Siemens), the solution containing each compound (about 10 MBq) was administered from the tail vein, and after 90 minutes from the administration, PET imaging was performed for 5 minutes. The PET image was reconstructed and then image processing was performed. The heart and femur were isolated 120 minutes after the administration, and the amount of radioactivity was measured with a gamma counter 2480 WIZARD^2 (manufactured by PerkinElmer Inc.). The accumulation (SUV) of each compound was calculated as {radioactivity count (MBq/cc)/[dose (MBq)/body weight (g)] in the target organ}.

[2] = system: myocardial infarction model rat; assay: PET test using model rat with myocardial infarction by coronary artery ligation; settings: male SD rat, about 10 MBq tail vein, 20 minutes after administration, versus untreated rat
Method: A myocardial infarction model was prepared by coronary artery ligation using SD rats, and a thoracic contrast PET test was performed using the solution containing the compound of Example 1 (7-[^18F]FTO).
In a state in which an untreated rat or a model rat with myocardial infarction was anesthetized with the inhalation anesthetic isoflurane using a male SD rat, the rat was held in a supine body position on a PET camera Inveon (manufactured by Siemens), and the solution containing the compound (about 10 MBq) was administered from the tail vein. After 20 minutes from the administration, PET imaging was performed for 5 minutes. The PET image was reconstructed and then image processing was performed.

[3] = 20 Minutes after administration
[4] = 60 Minutes after administration
[5] = 120 Minutes after administration
[6] = 240 Minutes after administration
[7] = mouse, extracted organs, result in words

CCCC([18F])CCCC/C=C\CCCCSCCC(=O)O (stereo not shown) [Reference Example 5, 3-{[(5Z)-11-[^18F]fluorotetradeca-5-en-1-yl]sulfanyl}propanoic acid]
SUV (Bone) [1, 3]: 1.27
SUV (Bone) [1, 4]: 1.17
SUV (Bone) [1, 5]: 1.54
SUV (Bone) [1, 6]: 2.10
accumulation to the heart muscle compared to [^18F]FTO [1]: slightly reduced
non-specific accumulation to the bone compared to [^18F]FTO ([1]; listed as 15-[^18F]FTO): equivalent or reduced; also recorded: the accumulation in the bone was also observed
SUV (Heart muscle) [1, 3]: 4.79
SUV (Heart muscle) [1, 4]: 3.60
SUV (Heart muscle) [1, 5]: 3.21
SUV (Heart muscle) [1, 6]: 2.78

O=C(O)CCSCCCC/C=C\CCCCCCCC[18F] [Reference Example 4, 3-{[(5Z)-14-[^18F]fluorotetradeca-5-en-1-yl]sulfanyl}propanoic acid, reference compound]
SUV (Bone) [1, 3]: 1.42 ± 0.10
SUV (Bone) [1, 4]: 2.27 ± 0.13
SUV (Bone) [1, 5]: 3.82 ± 0.60
SUV (Bone) [1, 6]: 6.15 ± 1.02
SUV (Heart muscle) [1, 3]: 6.45 ± 0.59
SUV (Heart muscle) [1, 4]: 6.54 ± 0.51
SUV (Heart muscle) [1, 5]: 5.90 ± 0.58
SUV (Heart muscle) [1, 6]: 4.63 ± 0.57
SUV Femur (DBA2 mouse): 2.03 ± 0.32
SUV Heart (DBA2 mouse): 1.52 ± 0.25

CCCCCCCC/C=C\CCC([18F])CSCCC(=O)O (stereo not shown) [Example 2, 3-{[(5Z)-2-[^18F]fluorotetradeca-5-en-1-yl]sulfanyl}propanoic acid]
SUV (Bone) [1, 3]: 1.56
SUV (Bone) [1, 4]: 1.96
SUV (Bone) [1, 5]: 2.49
accumulation to the heart muscle compared to [^18F]FTO [1]: further increased
non-specific accumulation to the bone compared to [^18F]FTO [1]: equivalent or reduced
SUV (Heart muscle) [1, 3]: 8.35
SUV (Heart muscle) [1, 4]: 7.25
SUV (Heart muscle) [1, 5]: 6.60

CCCCCCCC/C=C\CC([18F])CCSCCC(=O)O (stereo not shown) [Example 1, 3-{[(5Z)-3-[^18F]fluorotetradeca-5-en-1-yl]sulfanyl}propanoic acid]
coronal section PET image of the heart in the myocardial infarction model rat [2]: the signal was deleted in a part of the elliptical heart
accumulation to the heart muscle compared to [^18F]FTO [1]: further increased
non-specific accumulation to the bone compared to [^18F]FTO ([1]; listed as 7-[^18F]FTO): equivalent or reduced; also recorded: not detected at all
SUV (Heart muscle) [1, 3]: 8.46
SUV (Heart muscle) [1, 4]: 9.26
SUV (Heart muscle) [1, 5]: 8.85
SUV (Heart muscle) [1, 6]: 8.35
SUV Femur (DBA2 mouse): 0.48 ± 0.04
SUV Heart (DBA2 mouse): 3.53 ± 0.77
accumulation to the heart compared to Reference Example 4 (DBA2 mouse; [7]): excellent accumulation to the heart
non-specific accumulation in the bone compared to Reference Example 4 (DBA2 mouse; [7]): low non-specific accumulation in the bone

CC([18F])CCCCCC/C=C\CCCCSCCC(=O)O (stereo not shown) [Reference Example 6, 3-{[(5Z)-13-[^18F]fluorotetradeca-5-en-1-yl]sulfanyl}propanoic acid]
SUV (Bone) [1, 3]: 1.11
SUV (Bone) [1, 4]: 1.28
SUV (Bone) [1, 5]: 1.94
SUV (Bone) [1, 6]: 3.23
accumulation to the heart muscle compared to [^18F]FTO [1]: slightly reduced
non-specific accumulation to the bone compared to [^18F]FTO ([1]; listed as 17-[^18F]FTO): equivalent or reduced; also recorded: the accumulation in the bone was also observed
SUV (Heart muscle) [1, 3]: 5.88
SUV (Heart muscle) [1, 4]: 5.78
SUV (Heart muscle) [1, 5]: 4.86
SUV (Heart muscle) [1, 6]: 2.60
